Consider 18 compounds from ChEMBL document CHEMBL5257093, “3-Arylidene-2-oxindoles as GSK3β inhibitors and anti-thrombotic agents” (Bioorg Med Chem Lett, 2023).

Data set [1] concerns the target Glycogen synthase kinase-3 beta (Homo sapiens, UniProt P49841). Put plainly: Inhibition of recombinant human GSK3beta […] assessed as reduction in human muscle glycogen synthase type 1 fragment phosphorylation using YRRAAVPPSPSLSRHSSPHQ(pS)EDE as substrate in presence of ATP incubated for 60 mins by ADP-Glo kinase assay.
Data set [2] is filed under the species Homo sapiens. Put plainly: Antiplatelet activity in platelet rich plasma (unknown origin) assessed as inhibition of collagen-induced platelet aggregation incubated for 5 mins by aggregometer analysis. Format: functional.
Data set [3] can be described thus: (§1) Cytotoxicity against mouse Peritoneal macrophages assessed as LDH release by LDH assay. Format: toxicity, cell-based, Peritoneal macrophage. The conditions noted are these: peritoneal macrophages.
The test system of another data set is Rattus norvegicus. Kind of data set: Antithrombotic activity FeCl3-induced carotid artery thrombosis rat model assessed as prolongation of artery occlusion time pretreated dosed IG for 2 hrs followed by 50% FeCl3 application. Particulars: po. Format: functional.
For data set [4], the species on record is Homo sapiens. Kind of data set: cells. The conditions noted are these: Platelet, Plasma, 5 min, read-out: INH.
Description: Antiplatelet activity in platelet rich plasma (unknown origin) assessed as inhibition of ADP-induced platelet aggregation at 100 uM incubated for 5 mins by aggregometer analysis
The species entered for data set [5] is Homo sapiens. Put plainly: cells. The conditions noted are these: Platelet, Plasma, 5 min, read-out: INH. The source holds these as a separate data set.
Description: Antiplatelet activity in platelet rich plasma (unknown origin) assessed as inhibition of ADP-induced platelet aggregation at 10 uM incubated for 5 mins by aggregometer analysis
The species entered for data set [6] is Homo sapiens. Put plainly: cells. The conditions noted are these: Platelet, Plasma, 5 min, read-out: INH. This is another data set of the same source.
Description: Antiplatelet activity in platelet rich plasma (unknown origin) assessed as inhibition of ADP-induced platelet aggregation at 1 uM incubated for 5 mins by aggregometer analysis
The species named for data set [7] is Homo sapiens. Kind of data set: Antiplatelet activity in platelet rich plasma (unknown origin) assessed as inhibition of ADP-induced platelet aggregation incubated for 5 mins by aggregometer analysis. Format: functional.
For another data set, the system named is Peritoneal macrophage. The description is as §1. In kind it is toxicity, cell-based. The conditions noted are these: peritoneal macrophage.

Glycogen synthase kinase-3 beta, sequence (P49841 whole entry, the tested form may be a part): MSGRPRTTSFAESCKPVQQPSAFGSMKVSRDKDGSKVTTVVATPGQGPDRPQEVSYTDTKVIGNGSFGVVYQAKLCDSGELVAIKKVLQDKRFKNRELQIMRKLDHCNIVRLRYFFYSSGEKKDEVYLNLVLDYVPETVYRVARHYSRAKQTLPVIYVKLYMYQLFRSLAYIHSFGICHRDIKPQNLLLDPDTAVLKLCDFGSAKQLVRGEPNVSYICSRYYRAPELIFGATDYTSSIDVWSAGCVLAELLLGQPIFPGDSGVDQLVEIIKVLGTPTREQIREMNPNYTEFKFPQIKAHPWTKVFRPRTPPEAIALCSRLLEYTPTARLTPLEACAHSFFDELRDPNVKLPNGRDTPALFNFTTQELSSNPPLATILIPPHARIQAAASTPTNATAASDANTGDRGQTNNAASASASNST

Consider `CC(=O)Nc1ccc2c(c1)/C(=C\c1cccnc1)C(=O)N2`, for which, in data set [1], the half-inhibitory concentration (IC50) is more than 50 µM. As to `O=C1Nc2ccccc2C1Cc1cccnc1` (stereo not given), the 50% inhibitory concentration (IC50) in data set [1] is 0.0042 µM; in the data set listed under Homo sapiens [2] (read-out: IC50), 3 µM. Besides, the half-maximal cytotoxic concentration (CC50) in data set [3] is more than 100 µM. The ED50 in the data set on Rattus norvegicus was found to be 7.3 mg/kg. Also, the inhibition at 100 µM in the data set filed under Homo sapiens [4] amounted to 75.6%. For the same compound, the inhibition at 10 µM in the data set listed under Homo sapiens [5] is 55.6%. The inhibition at 1 µM in the data set filed under Homo sapiens [6] is 26.5%. As to `O=C1Nc2ccc(NC(=O)c3ccccc3)cc2/C1=C\c1ccc(O)cc1`, the 50% inhibitory concentration (IC50) in the data set filed under Homo sapiens [7] (read-out: IC50) came to 18.5 µM; in the data set listed under Homo sapiens [2] (read-out: IC50) it was 46.7 µM. For the same compound, the CC50 with Peritoneal macrophage was more than 100 µM. In addition, the inhibition at 100 µM in the data set listed under Homo sapiens [4] was determined as 72.3%. Further, the inhibition at 10 µM in the data set listed under Homo sapiens [5] came to 37.2%. Further, the inhibition at 1 µM in the data set listed under Homo sapiens [6] was determined as 19.3%. In the case of `CN1C(=O)/C(=C/c2ccccn2)c2ccccc21`, the IC50 in [1] was more than 50 µM. For the compound `Nc1ccc(CC2C(=O)Nc3ccccc32)cc1` (stereo not given), the 50% inhibitory concentration (IC50) in data set [1] was 50 µM. Same read-out and setting: the same measure for `Nc1ccc2c(c1)C(Cc1ccccn1)C(=O)N2` (stereo not given): more than 50 µM. As for `Cc1n[nH]cc1/C=C1/C(=O)Nc2ccccc21`, the half-maximal inhibitory concentration (IC50) in data set [1] was 5.68 µM. Consider `Cn1cc(/C=C2/C(=O)Nc3ccccc32)cn1`, for which the IC50 in data set [1] amounted to 13.5 µM. In the case of `O=C1Nc2ccccc2/C1=C\c1ccc(O)cc1`, the 50% inhibitory concentration (IC50) in [1] was more than 50 µM.

`O=C1Nc2ccc([N+](=O)[O-])cc2/C1=C\c1cccnc1`: in data set [1], the IC50 amounted to 20 µM. Same read-out and setting: as for `COCC(=O)c1[nH]ncc1/C=C1\C(=O)Nc2ccccc21`, the figure is 6.72 µM; as for `CC(=O)Nc1ccc2c(c1)/C(=C\c1ccc(O)cc1)C(=O)N2`, 34.4 µM; as for `CCOC(=O)c1[nH]ncc1/C=C1\C(=O)Nc2ccc([N+](=O)[O-])cc21`, 1.77 µM. The same measure, in the same setting: as for `COC(=O)Nc1ccc2c(c1)/C(=C\c1ccc([N+](=O)[O-])cc1)C(=O)N2`, the figure is 0.348 µM.

Regarding `Cc1ccc(C(=O)CC2(O)C(=O)Nc3ccc(NC(=O)c4ccccc4)cc32)cc1` (stereo not given), in [1], the IC50 was 1.72 µM.

Take `COC(=O)Nc1ccc2c(c1)/C(=C\c1ccc(O)cc1)C(=O)N2`: the 50% inhibitory concentration (IC50) in the data set filed under Homo sapiens [7] (read-out: IC50) was 13.5 µM; in the data set filed under Homo sapiens [2] (read-out: IC50) it was more than 100 µM. In addition, the half-maximal cytotoxic concentration (CC50) with Peritoneal macrophage is more than 100 µM. In the case of `CC(=O)Oc1ccccc1C(=O)O` [ASPIRIN], the 50% inhibitory concentration (IC50) is 81 µM in the data set filed under Homo sapiens [7] and 4.5 µM in the data set listed under Homo sapiens [2]. In addition, the 50% effective dose (ED50) in the data set with Rattus norvegicus was determined as 137 mg/kg. Regarding `O=C1Nc2ccccc2C12CC2c1ccccn1` (stereo not given), the figures for the IC50 in the data set filed under Homo sapiens [7] (read-out: IC50) and in the data set filed under Homo sapiens [2] (read-out: IC50) were 8.9 µM and 37 µM, respectively. Also, the cytotoxic concentration (CC50) in the data set with Peritoneal macrophage is more than 100 µM.
